Measured values published in article PMC7038136 (2020).

Assays:
[1] = tested on: sulfhydryl modified aptamer 31 (DNA, aptamer) ACGCATAGGGTGCGACCACATACGCCCCATGTATGTCCCTTGGTTGTGCCCTATGCGT; assay: electrochemical impedance spectroscopy; settings: K+ (0.5 M KCl), 10 mM K3[Fe(CN)6]/K4[Fe(CN)6], PBS pH 7.0, 30 min
[2] = tested on: Aptamer 31 (DNA, aptamer) ACGCATAGGGTGCGACCACATACGCCCCATGTATGTCCCTTGGTTGTGCCCTATGCGT; assay: LSPR (OpenSPR), one-to-one kinetic model; settings: Na+ (29.2 g NaCl per 500 mL, about 1 M), Mg2+ (0.1 g MgCl2·6H2O per 500 mL, about 1 mM); immobilised compound; amine chip; phosphate buffer pH 7.0; aptamer as analyte, 2.5-40 nM
[3] = tested on: Aptamer 123 (DNA, aptamer) ACGCATAGGGCAACCAGACCAGCCCCATCCCCATGTGACTTCTGTTTGGCCTATGCGT; assay: LSPR (OpenSPR), one-to-one kinetic model; settings: Na+ (29.2 g NaCl per 500 mL, about 1 M), Mg2+ (0.1 g MgCl2·6H2O per 500 mL, about 1 mM); immobilised compound; amine chip; phosphate buffer pH 7.0; aptamer as analyte, 2.5-40 nM
[4] = tested on: Aptamer 203 (DNA, aptamer) ACGCATAGGGCAAGACAAACTGCGCCATTCAGCATGCTGTTCGGGTTGGCCTATGCGT; assay: LSPR (OpenSPR), one-to-one kinetic model; settings: Na+ (29.2 g NaCl per 500 mL, about 1 M), Mg2+ (0.1 g MgCl2·6H2O per 500 mL, about 1 mM); immobilised compound; amine chip; phosphate buffer pH 7.0; aptamer as analyte, 2.5-40 nM
[5] = tested on: Aptamer 281 (DNA, aptamer) ACGCATAGGGTGTGCATCAGCAGTACCAACGACGTTGTGGTGTGCTCATCCTATGCGT; assay: LSPR (OpenSPR), one-to-one kinetic model; settings: Na+ (29.2 g NaCl per 500 mL, about 1 M), Mg2+ (0.1 g MgCl2·6H2O per 500 mL, about 1 mM); immobilised compound; amine chip; phosphate buffer pH 7.0; aptamer as analyte, 2.5-40 nM
[6] = tested on: Aptamer 31 (DNA, aptamer) ACGCATAGGGTGCGACCACATACGCCCCATGTATGTCCCTTGGTTGTGCCCTATGCGT; assay: AuNP colorimetric assay (A620/A520 ratio > 1.1); settings: 1.0 M NaCl added after incubation to aggregate AuNPs; 0.4 μM aptamer, 1 μg/mL DEHP, 30 min; room temperature
[7] = tested on: Aptamer 123 (DNA, aptamer) ACGCATAGGGCAACCAGACCAGCCCCATCCCCATGTGACTTCTGTTTGGCCTATGCGT; assay: AuNP colorimetric assay (A620/A520 ratio > 1.1); settings: 1.0 M NaCl added after incubation to aggregate AuNPs; 0.4 μM aptamer, 1 μg/mL DEHP, 30 min; room temperature
[8] = tested on: Aptamer 203 (DNA, aptamer) ACGCATAGGGCAAGACAAACTGCGCCATTCAGCATGCTGTTCGGGTTGGCCTATGCGT; assay: AuNP colorimetric assay (A620/A520 ratio > 1.1); settings: 1.0 M NaCl added after incubation to aggregate AuNPs; 0.4 μM aptamer, 1 μg/mL DEHP, 30 min; room temperature
[9] = tested on: Aptamer 281 (DNA, aptamer) ACGCATAGGGTGTGCATCAGCAGTACCAACGACGTTGTGGTGTGCTCATCCTATGCGT; assay: AuNP colorimetric assay (A620/A520 ratio > 1.1); settings: 1.0 M NaCl added after incubation to aggregate AuNPs; 0.4 μM aptamer, 1 μg/mL DEHP, 30 min; room temperature

SMILES | binding ([1]; only 30.518 pg/mL tested) | further results
CC(C)COC(=O)c1ccccc1C(=O)OCC(C)C | no | –
CCCCC(CC)COC(=O)c1ccc(OCCCC(=O)O)cc1C(=O)OCC(CC)CCCC (stereo not drawn) | – | Kd [2]: 2.26 ± 0.06 nM; Kd [3]: 5.33 ± 0.01 nM; Kd [4]: 2.68 ± 0.2 nM; Kd [5]: 43 ± 0.7 nM
CCCCC(CC)COC(=O)c1ccccc1C(=O)OCC(CC)CCCC (stereo not drawn) | – | binding ([1]; 30.518 pg/mL): yes; binding [6]: yes; binding [7]: yes; binding [8]: yes; binding [9]: yes
CCCCCCCCOC(=O)c1ccccc1C(=O)OCCCCCCCC | no | –
CCCCCCOC(=O)c1ccccc1C(=O)OCCCCCC | no | –
CCCCOC(=O)c1ccccc1C(=O)OCCCC | no | –
CCCCOC(=O)c1ccccc1C(=O)OCc1ccccc1 | no | –
CCOC(=O)c1ccccc1C(=O)OCC | no | –
COC(=O)c1ccccc1C(=O)OC | no | –
O=C(OC1CCCCC1)c1ccccc1C(=O)OC1CCCCC1 | no | –
O=C(Oc1ccccc1)c1ccccc1C(=O)Oc1ccccc1 | no | –
